From publication PMC3103136 (2011)

Experiments:
[1] = target: T1, human tear lipocalin (TL) (Homo sapiens, UniProt P31025, C119L); assay: fluorescence titration, steady-state deconvoluted with time-resolved lifetimes; assay type: binding
[2] = target: human tear lipocalin (TL) mutant S61/S153 (Homo sapiens, UniProt P31025, C119L/C171S/C79S); assay: as above; assay type: binding
[3] = target: human tear lipocalin (TL) mutant S61/S153 (Homo sapiens, UniProt P31025, C79S/C119L/C171S); assay: time-dependent fluorescence binding kinetics
[4] = target: T1, human tear lipocalin (TL); assay: time-dependent fluorescence binding kinetics

T1 sequence (P31025 19-176 C119L): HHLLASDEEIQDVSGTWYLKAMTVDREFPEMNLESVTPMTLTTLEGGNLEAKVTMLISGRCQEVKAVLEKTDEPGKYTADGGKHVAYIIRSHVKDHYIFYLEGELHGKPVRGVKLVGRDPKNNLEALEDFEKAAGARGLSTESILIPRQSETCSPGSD
Chain of human tear lipocalin (TL) mutant S61/S153 (Homo sapiens, UniProt P31025, C79S/C119L/C171S) (P31025 19-176 C79S/C119L/C171S): as the sequence (P31025 19-176 C119L) above, with C61S, C153S counted along it
Chain of human tear lipocalin (TL) mutant S61/S153 (Homo sapiens, UniProt P31025, C119L/C171S/C79S) (P31025 19-176 C79S/C119L/C171S): as the sequence (P31025 19-176 C119L) above, with C61S, C153S counted along it

Kd [1] [nM] | Kd [2] [nM] | Structure (SMILES) | time-dependent fluorescence binding kinetics (time constant) [3] [s] | time-dependent fluorescence binding kinetics (time constant) [4] [s]
2400 ± 300 | 2600 ± 300 | CN(C)c1cccc2c(S(=O)(=O)NCCCCCCCCCCC(=O)O)cccc12 [DAUDA, 11-((5-dimethylaminonaphthalene-1-sulfonyl)amino)undecanoic acid] |  | 
 |  | CCCCCCCCCCCCCCCC(=O)OC[C@H](COP(=O)([O-])OCC[N+](C)(C)C)OC(=O)CCCCCCCCCCCNc1ccc([N+](=O)[O-])c2nonc12 [NBD C12-HPC, 2-(12-(7-nitrobenz-2-oxa-1,3-diazol-4-yl)amino)dodecanoyl-1-hexadecanoyl-sn-glycero-3-phosphocholine] | 22.2 ± 0.4 | 32.2 ± 0.2
 |  | C[C@H](CNc1ccc([N+](=O)[O-])c2nonc12)[C@H]1CC[C@H]2[C@@H]3CC=C4C[C@@H](O)CC[C@]4(C)[C@H]3CC[C@]12C [NBD cholesterol, 22-(N-(7-nitrobenz-2-oxa-1,3-diazol-4-yl)amino)-23,24-bisnor-5-cholen-3\u03B2-ol] | 3.3 ± 0.1 | 11.8 ± 0.2
